Experimental findings from US20110088107A1, “COMPOSITIONS AND METHODS FOR DERIVING OR CULTURING PLURIPOTENT CELLS” (priority 2009, published 2011) are described below.

The test system of this assay is NOD blastocysts (ICM explants). Put plainly: NOD ES cell derivation from blastocysts in the presence of small molecules. The format is cell-based, mouse (NOD/LtJ). The following applies: NOD/LtJ blastocysts, mESM with the inhibitors. From the text:
NOD/ShiLtJ were obtained from the Jackson laboratory and bred in specific-pathogen-free animal facility. Control MEFs were made from 129SvJae mice. Non-NOD ES lines derived used in this study as controls were derived from matings between 129SvJae or B6D2F1 mice. To derive ES lines, ICM explants were derived from day 3.5 blastocysts following procedures previously described (Markoulaki et al., 2008). Where applicable, ES derivation medium was also supplemented with the indicated compounds (Table S2). Dissociation of the outgrowths by treatment with Trypsin was performed on day 5 after plating and the cells were further cultured in mESC derivation medium until colonies appeared (typically after 5-7 days). From then on, established ES lines were cultured in mESM condition supplemented with the indicated compounds. NOD […] ES lines were derived by similarly plating blastocysts in EpiSC-derivation medium (For 100 ml, we added 15 ml FBS (Hyclone), 5 ml KSR, 5 μl Lif (1×107 U ESGRO/ml; Chemicon), 100 μl Mek1 inhibitor (PD98059; Cell Signaling Technology), hFGF2 ([…]), 1 ml non-essential amino acids, 1 ml glutamine solution, and 1 ml pen/strep solution into DMEM/F12). ICM outgrowths were manually passaged after 5-7 days and were stably maintained in […] conditions. […]

Turning to `O=C1Cc2c([nH]c3ccc(Br)cc23)-c2ccccc2N1` [Kenpaullone, 9-bromo-7,12-dihydroindolo[3,2-d][1]benzazepin-6(5H)-one], the “# of ES lines derived” value was determined as 2 and the “ES derivation (% efficiency)” value is on record as “(13%)”.
